The target of assay [1] is T1, Histone deacetylase 1 (Homo sapiens, UniProt Q13547). Put plainly: Induction of HDAC1 degradation in human RS4-11 cells at 0.5 to 10 uM incubated for 12 hrs by Western blotting analysis. The format is cell-based. Conditions: dose 0.5-10 µM.
For assay [2], the target named is T2, Protein deacetylase HDAC6 (Homo sapiens) (UniProt Q9UBN7).
T2 sequence (whole entry): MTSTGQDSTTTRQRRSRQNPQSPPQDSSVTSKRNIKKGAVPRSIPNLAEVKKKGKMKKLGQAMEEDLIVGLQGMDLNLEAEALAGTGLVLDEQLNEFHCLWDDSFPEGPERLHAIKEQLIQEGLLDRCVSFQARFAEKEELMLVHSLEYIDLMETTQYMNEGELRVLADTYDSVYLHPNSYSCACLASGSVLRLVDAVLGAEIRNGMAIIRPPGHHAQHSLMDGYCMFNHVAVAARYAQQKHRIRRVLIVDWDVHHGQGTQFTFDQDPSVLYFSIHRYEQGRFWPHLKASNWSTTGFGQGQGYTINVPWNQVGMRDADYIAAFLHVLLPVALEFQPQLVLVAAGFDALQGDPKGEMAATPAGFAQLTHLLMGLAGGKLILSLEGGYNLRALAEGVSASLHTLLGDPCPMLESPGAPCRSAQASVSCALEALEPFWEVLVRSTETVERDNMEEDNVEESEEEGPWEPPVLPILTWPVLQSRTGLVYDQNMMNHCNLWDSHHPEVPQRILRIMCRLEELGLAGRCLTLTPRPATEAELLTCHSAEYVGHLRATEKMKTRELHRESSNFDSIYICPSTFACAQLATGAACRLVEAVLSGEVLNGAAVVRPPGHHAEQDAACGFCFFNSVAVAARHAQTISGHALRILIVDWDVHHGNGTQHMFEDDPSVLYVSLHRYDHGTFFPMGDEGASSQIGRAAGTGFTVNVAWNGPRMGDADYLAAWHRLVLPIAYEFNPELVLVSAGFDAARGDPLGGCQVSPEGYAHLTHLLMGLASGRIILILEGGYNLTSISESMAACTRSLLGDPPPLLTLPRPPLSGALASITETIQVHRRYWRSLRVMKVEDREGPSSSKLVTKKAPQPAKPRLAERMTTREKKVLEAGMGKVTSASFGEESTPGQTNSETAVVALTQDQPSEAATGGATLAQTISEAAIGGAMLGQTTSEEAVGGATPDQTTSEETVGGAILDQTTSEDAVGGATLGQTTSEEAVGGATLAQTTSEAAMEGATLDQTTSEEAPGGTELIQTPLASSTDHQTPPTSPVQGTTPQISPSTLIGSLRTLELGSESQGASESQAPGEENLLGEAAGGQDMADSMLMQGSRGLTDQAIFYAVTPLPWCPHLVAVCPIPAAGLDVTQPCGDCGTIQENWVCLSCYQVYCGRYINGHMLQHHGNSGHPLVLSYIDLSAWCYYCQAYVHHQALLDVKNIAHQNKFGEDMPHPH
Put plainly: Induction of HDAC6 degradation in human RS4-11 cells at 0.5 to 10 uM incubated for 12 hrs by Western blotting analysis. The format is cell-based. Conditions: dose 0.5-10 µM.

In assay [3] the target is DNA-binding protein Ikaros (Homo sapiens) (UniProt Q13422). As to the kind of experiment: Induction of IKZF1 degradation in human RS4-11 cells at 1 to 10 uM by Western blotting analysis. The note with it: dose 1-10 µM. The format is cell-based.
DNA-binding protein Ikaros (Homo sapiens), sequence (Q13422 whole entry): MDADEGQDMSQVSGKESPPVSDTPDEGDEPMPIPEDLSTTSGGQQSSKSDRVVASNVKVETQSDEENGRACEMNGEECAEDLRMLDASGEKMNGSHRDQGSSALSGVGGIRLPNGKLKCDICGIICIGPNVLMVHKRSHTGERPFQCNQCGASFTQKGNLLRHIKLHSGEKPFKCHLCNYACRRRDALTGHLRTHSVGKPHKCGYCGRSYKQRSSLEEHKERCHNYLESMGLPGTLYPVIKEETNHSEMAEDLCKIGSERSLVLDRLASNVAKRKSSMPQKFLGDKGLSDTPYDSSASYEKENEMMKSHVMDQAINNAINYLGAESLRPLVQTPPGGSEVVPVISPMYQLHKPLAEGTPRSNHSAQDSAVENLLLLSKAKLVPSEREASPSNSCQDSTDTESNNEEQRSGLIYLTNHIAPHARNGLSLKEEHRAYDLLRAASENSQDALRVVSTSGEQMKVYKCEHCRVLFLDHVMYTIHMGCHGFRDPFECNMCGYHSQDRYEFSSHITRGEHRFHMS
The target in assay [4] is Zinc finger protein Aiolos (Homo sapiens) (UniProt Q9UKT9). As to the kind of experiment: Induction of IKZF3 degradation in human RS4-11 cells at 1 to 10 uM by Western blotting analysis. The format is cell-based. The note with it: dose 1-10 µM.
Zinc finger protein Aiolos (Homo sapiens), sequence (Q9UKT9 whole entry): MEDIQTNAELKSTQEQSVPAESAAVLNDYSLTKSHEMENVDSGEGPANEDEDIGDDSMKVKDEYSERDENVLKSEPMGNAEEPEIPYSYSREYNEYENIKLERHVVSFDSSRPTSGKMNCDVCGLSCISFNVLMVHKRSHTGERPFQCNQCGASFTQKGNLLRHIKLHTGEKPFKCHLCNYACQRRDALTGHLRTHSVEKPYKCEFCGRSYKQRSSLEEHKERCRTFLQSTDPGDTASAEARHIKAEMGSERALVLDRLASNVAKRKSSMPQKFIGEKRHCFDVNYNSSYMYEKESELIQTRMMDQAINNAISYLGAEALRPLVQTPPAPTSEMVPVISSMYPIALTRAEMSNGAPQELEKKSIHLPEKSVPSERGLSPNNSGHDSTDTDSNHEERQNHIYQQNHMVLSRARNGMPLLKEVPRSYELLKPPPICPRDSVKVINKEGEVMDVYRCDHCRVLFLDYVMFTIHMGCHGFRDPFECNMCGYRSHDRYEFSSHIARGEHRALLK
Assay [5] concerns the target T2, Protein deacetylase HDAC6 (Homo sapiens). As to the kind of experiment: Inhibition of HDAC6 in human RS4-11 cells assessed as effect on alpha-tubulin acetylation by Western blot assay. Type of assay: cell-based.
The target in assay [6] is T1, Histone deacetylase 1. As to the kind of experiment: Inhibition of HDAC1 (unknown origin) using BocLys(acetyl)-AMC as substrate incubated for 1 hr by fluorescence plate reader analysis.
The target of the next assay is Histone deacetylase 2 (Homo sapiens, UniProt Q92769). Put plainly: Inhibition of HDAC2 in human HeLa cells nuclear extract using BocLys(acetyl)-AMC as substrate incubated for 1 hr by fluorescence plate reader analysis. Type of assay: subcellular, Nucleus.
Histone deacetylase 2, sequence (Q92769 whole entry): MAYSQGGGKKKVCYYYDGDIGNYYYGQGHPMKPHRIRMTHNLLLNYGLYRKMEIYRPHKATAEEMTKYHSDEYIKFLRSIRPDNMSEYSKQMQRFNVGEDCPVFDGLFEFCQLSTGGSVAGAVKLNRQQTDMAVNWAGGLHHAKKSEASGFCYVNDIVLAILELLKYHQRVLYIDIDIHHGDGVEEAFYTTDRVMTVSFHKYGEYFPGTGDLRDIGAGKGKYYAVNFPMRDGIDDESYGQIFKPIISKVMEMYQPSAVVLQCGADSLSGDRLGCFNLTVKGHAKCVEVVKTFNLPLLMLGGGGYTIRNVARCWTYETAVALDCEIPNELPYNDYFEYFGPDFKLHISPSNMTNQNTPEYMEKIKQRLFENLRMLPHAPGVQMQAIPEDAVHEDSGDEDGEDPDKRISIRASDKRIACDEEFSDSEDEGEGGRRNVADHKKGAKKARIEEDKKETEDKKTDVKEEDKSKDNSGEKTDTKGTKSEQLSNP
The target in another assay is Histone deacetylase 9 (Homo sapiens, UniProt Q9UKV0). Put plainly: Inhibition of HDAC9 in human HeLa cells nuclear extract using BocLys(acetyl)-AMC as substrate incubated for 1 hr by fluorescence plate reader analysis. The format is subcellular, Nucleus.
Histone deacetylase 9, sequence (Q9UKV0 whole entry): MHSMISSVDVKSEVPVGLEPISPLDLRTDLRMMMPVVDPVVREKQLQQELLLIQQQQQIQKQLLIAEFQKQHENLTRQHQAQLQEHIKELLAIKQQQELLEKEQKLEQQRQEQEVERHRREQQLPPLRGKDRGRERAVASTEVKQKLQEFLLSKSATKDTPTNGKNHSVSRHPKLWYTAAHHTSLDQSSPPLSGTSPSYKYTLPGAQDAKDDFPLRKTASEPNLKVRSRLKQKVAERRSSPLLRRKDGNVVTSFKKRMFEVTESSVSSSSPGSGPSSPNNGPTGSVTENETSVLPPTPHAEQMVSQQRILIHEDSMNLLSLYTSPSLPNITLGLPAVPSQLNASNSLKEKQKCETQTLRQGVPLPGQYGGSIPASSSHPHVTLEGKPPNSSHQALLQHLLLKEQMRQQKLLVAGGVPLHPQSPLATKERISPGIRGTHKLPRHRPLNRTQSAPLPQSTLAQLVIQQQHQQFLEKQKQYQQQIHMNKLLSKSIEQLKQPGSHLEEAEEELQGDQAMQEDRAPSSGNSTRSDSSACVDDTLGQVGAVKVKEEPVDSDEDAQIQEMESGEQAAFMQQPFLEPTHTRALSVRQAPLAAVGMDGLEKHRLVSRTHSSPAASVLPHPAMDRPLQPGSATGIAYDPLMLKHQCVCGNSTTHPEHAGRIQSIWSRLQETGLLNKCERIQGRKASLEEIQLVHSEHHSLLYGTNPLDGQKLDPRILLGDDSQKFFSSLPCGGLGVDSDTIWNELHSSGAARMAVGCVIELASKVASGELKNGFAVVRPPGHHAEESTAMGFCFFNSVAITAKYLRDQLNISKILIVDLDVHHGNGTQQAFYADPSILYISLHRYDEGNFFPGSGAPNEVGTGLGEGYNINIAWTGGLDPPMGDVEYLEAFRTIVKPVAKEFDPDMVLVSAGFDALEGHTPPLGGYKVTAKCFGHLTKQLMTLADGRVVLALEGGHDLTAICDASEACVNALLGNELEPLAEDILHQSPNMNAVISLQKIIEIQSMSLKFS
The next assay has as its target T3, Histone deacetylase 11 (Homo sapiens, UniProt Q96DB2).
T3 sequence (Q96DB2 whole entry): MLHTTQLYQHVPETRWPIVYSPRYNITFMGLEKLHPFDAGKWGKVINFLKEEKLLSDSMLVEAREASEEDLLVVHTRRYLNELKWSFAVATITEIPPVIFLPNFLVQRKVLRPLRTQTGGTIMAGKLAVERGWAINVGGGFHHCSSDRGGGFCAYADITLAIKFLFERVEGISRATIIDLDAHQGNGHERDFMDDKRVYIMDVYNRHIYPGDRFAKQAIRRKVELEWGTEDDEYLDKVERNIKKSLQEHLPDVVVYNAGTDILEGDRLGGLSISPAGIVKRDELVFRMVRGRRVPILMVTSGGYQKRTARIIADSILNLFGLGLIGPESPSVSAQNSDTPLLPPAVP
As to the kind of experiment: Inhibition of HDAC11 in human HeLa cells nuclear extract using BocLys(acetyl)-AMC as substrate incubated for 1 hr by fluorescence plate reader analysis. The format is subcellular, Nucleus.

A further assay deals with HCT-116. As to the kind of experiment: Antiproliferative activity against human HCT-116 cells assessed as cell growth inhibition at 5 uM incubated for 48 hrs by CCK-8 assay. The format is functional, cell-based.
The subject of assay [7] is RS4-11. Put plainly: Antiproliferative activity against human RS4-11 cells assessed as cell growth inhibition at 5 uM incubated for 48 hrs by CCK-8 assay. Type of assay: functional, cell-based.
Assay [8] relates to K562. As to the kind of experiment: Antiproliferative activity against human K562 cells assessed as cell growth inhibition at 5 uM incubated for 48 hrs by CCK-8 assay. The format is functional, cell-based.
For assay [9], the system named is RPMI-8226. As to the kind of experiment: Antiproliferative activity against human RPMI-8226 cells assessed as cell growth inhibition at 5 uM incubated for 48 hrs by CCK-8 assay. The format is functional, cell-based.
For a further assay, the system named is U-266. Put plainly: Antiproliferative activity against human U-266 cells assessed as cell growth inhibition at 5 uM incubated for 48 hrs by CCK-8 assay. The format is functional, cell-based.
Assay [10] concerns RPMI-8226. Put plainly: Antiproliferative activity against human RPMI-8226 cells assessed as cell growth inhibition incubated for 48 hrs by CCK-8 assay. The format is functional, cell-based. Conditions: RPMI-8226, 48 h.
Assay [11] relates to K562. As to the kind of experiment: Antiproliferative activity against human K562 cells assessed as cell growth inhibition incubated for 48 hrs by CCK-8 assay. The format is functional, cell-based. The note with it: K562, 48 h.
Assay [12] deals with T2, Protein deacetylase HDAC6 (Homo sapiens). Put plainly: Inhibition of HDAC6 in human RS4-11 cells assessed as upregulation of alpha-tubulin acetylation at 1 to 10 uM by Western blot assay. The note with it: dose 1-10 µM. The format is cell-based.
Assay [13] relates to RS4-11. Put plainly: Induction of apoptosis in human RS4-11 cells assessed as upregulation of p21 at 1 to 10 uM. Type of assay: functional, cell-based. Conditions: dose 1-10 µM.
Assay [14] deals with RS4-11. Put plainly: Induction of cell cycle arrest in human RS4-11 cells assessed as S phase arrest after 48 hrs by PI staining based flow cytometry analysis. The note with it: dose 1-10 µM. The format is functional.
Assay [15] has as its system RS4-11. As to the kind of experiment: Induction of apoptosis in human RS4-11 cells after 48 hrs by Annexin V-FITC/PI staining based flow cytometry analysis. Type of assay: functional, cell-based. Conditions: dose 1-10 µM.

SMILES strings stand for the structures. Active and inactive are the calls of the source. The calls are words filed in the database; no cut-off is given here.

T1 sequence (Q13547 whole entry): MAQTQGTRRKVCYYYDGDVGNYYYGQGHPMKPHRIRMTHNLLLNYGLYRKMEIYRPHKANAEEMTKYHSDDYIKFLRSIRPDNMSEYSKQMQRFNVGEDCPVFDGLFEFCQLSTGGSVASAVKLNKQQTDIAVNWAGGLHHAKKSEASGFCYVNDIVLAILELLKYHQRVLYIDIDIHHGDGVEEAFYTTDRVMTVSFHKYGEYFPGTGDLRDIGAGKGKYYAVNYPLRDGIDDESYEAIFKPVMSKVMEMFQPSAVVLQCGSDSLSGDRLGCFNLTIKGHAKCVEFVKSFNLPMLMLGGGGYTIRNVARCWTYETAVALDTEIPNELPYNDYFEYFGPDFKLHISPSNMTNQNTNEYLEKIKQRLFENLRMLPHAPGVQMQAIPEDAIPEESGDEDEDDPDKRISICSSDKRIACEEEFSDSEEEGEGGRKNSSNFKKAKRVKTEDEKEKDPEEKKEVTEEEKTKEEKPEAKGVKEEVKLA

On to `Nc1cc(F)ccc1NC(=O)c1ccc(CNc2cccc3c2C(=O)N(C2CCC(=O)NC2=O)C3=O)cc1` (stereo not given), for which the outcome (on Histone deacetylase 1 [1]; in assay [2]; in assay [5]; in the assay with HCT-116; in [12]) was inactive. The result (in assay [3]; in assay [4]; with RS4-11 [7]; in the assay with K562 [8]; in the assay with RPMI-8226 [9]; in the assay on U-266) was Active. Besides, the outcome in the assay on RS4-11 [13] was Active. Further, the half-inhibitory concentration (IC50) against Histone deacetylase 1 [6] was 457 nM; at Histone deacetylase 2, 434 nM; at Histone deacetylase 9 it was more than 2000 nM; against Histone deacetylase 11 it was more than 2000 nM; in the assay on RPMI-8226 [10] it was 3720 nM; in the assay on K562 [11] it was 5350 nM. Besides, the Activity entry in the assay on RS4-11 [14] and in the assay on RS4-11 [15] was “Dose-Dependent Effect” in each case.

In the case of `Nc1ccccc1NC(=O)c1ccc(CNc2cccc3c2C(=O)N(C2CCC(=O)NC2=O)C3=O)cc1` (stereo not given), the outcome (at Histone deacetylase 1 [1]; in [2]; in assay [5]; in the assay on HCT-116; in [12]) was inactive. Further, the outcome (in [3]; in assay [4]; in the assay with RS4-11 [7]; in the assay on K562 [8]; in the assay on RPMI-8226 [9]; with U-266) was Active. In addition, the result in the assay on RS4-11 [13] was Active. Moreover, the 50% inhibitory concentration (IC50) on Histone deacetylase 1 [6] was 551 nM; against Histone deacetylase 2 it was 379 nM; against Histone deacetylase 9, more than 2000 nM; on Histone deacetylase 11, more than 2000 nM; in the assay on RPMI-8226 [10] it was 5750 nM; with K562 [11], 5540 nM. Besides, the Activity result with RS4-11 [14] and in the assay with RS4-11 [15] was “Dose-Dependent Effect” in each case.

Values taken from ChEMBL document CHEMBL5532657, “Serendipitous discovery of Class I HDAC inhibitors from rational design of molecular glue degraders targeting HDAC” (Eur J Med Chem, 2024).
